Measurements as given in PMC11625940, “An Improved Test Method for Assaying the Inhibition of Bioflavonoids on Xanthine Oxidase Activity in vitro” (ChemistryOpen, 2024).

Assays:
Xanthine oxidase (XOD) [1] = target: T1, Xanthine oxidase (XOD); test: UV assay of uric acid formation at […] nm, test method A (inhibitor preincubated with enzyme, started by xanthine); format: biochemical; settings: xanthine substrate, sodium pyrophosphate buffer pH 7.5, 37 °C, other methods (B; C, inhibitor added to the running reaction with superoxide) also printed in the row, read-out: IC50 ^[a]/μmol L^-1
T1 construct: gene XDH; described in the introduction as a 290 kDa homodimer of mammals; the high specific activity could also fit a microbial enzyme

Xanthine oxidase (XOD) [2] = target: T1, Xanthine oxidase (XOD); test: UV assay of uric acid formation at […] nm, test method C (inhibitor added to running reaction after […] min, superoxide present); format: biochemical; settings: xanthine substrate, sodium pyrophosphate buffer pH 7.5, 37 °C, unreliable: compound may be oxidised to myricetin by superoxide, no IC50 reached in test methods A and B

IC50 (Xanthine oxidase (XOD) [1])	IC50 ^[c]/μmol L^-1 (Xanthine oxidase (XOD) [2])	SMILES
5 µM		O=c1c(O)c(-c2cc(O)c(O)c(O)c2)oc2cc(O)cc(O)c12 [Myricetin]
	20.96 µM	O=C1c2c(O)cc(O)cc2O[C@H](c2cc(O)c(O)c(O)c2)[C@H]1O [Dihydromyricetin]
4.34 µM		O=c1cc(-c2ccc(O)c(O)c2)oc2cc(O)cc(O)c12 [Luteolin]
